Values after ≈ are worked out from the molar mass of the structure shown.

Data set [1] can be described thus: Inhibition of human full length HPK1-T165E/S171E mutant expressed in baculovirus expression system assessed as inhibition of SLP76 phosphorylation using biotinylated SLP76 as substrate preincubated for 30 mins followed by incubation with substrate in presence of ATP and measured for 60 mins by HTRF assay.
Data set [2] in a line: Clearance in Sprague-Dawley rat at 0.5 mg/kg, iv measured for 8 hrs by LC-MS/MS analysis. In kind it is ADME, organism-based. Conditions: in vivo.
Data set [3] deals with T1, Mitogen-activated protein kinase kinase kinase kinase 1 (Homo sapiens, UniProt Q92918). Briefly: Inhibition of HPK1 in human Jurkat cells assessed as inhibition of anti-CD3/anti-CD28-induced SLP76 phosporylation at Ser376 residue incubated for 30 mins by ELISA. In kind it is cell-based. (In general: In an ELISA, binding on a coated surface is turned into a signal by an enzyme label.)
Target sequence in this assay (Q92918 whole entry): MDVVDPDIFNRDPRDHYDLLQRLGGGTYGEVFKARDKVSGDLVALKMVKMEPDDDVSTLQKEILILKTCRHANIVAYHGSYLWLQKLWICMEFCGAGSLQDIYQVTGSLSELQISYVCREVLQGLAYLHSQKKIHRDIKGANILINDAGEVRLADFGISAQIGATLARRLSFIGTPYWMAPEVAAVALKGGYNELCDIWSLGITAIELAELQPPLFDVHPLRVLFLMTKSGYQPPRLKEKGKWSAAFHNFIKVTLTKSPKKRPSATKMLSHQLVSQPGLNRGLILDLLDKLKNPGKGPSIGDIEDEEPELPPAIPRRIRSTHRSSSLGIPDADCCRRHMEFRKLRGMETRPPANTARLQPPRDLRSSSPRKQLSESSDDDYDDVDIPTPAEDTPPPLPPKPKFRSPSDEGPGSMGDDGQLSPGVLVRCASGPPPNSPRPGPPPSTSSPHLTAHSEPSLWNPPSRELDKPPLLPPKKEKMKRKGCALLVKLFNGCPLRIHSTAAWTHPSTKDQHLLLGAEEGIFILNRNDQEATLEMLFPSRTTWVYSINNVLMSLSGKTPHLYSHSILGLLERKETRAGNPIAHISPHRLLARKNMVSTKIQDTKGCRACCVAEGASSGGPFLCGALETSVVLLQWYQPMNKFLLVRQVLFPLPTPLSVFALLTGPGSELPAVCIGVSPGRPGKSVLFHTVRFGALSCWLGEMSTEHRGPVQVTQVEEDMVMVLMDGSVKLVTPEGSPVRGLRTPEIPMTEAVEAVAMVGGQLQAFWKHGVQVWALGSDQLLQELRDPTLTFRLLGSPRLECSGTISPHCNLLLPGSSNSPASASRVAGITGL

Data set [4] has as its target T1, Mitogen-activated protein kinase kinase kinase kinase 1. Nature of the data set: Inhibition of HPK1 in primary human Pan T cells assessed as increase in IL-2 secretion pretreated for 30 mins followed by incubation with anti-CD3/anti-CD28 and measured after 4 hrs by MSD assay. The data set is classed as cell-based, T cell.
Target sequence in this assay (Q92918 whole entry): as above
The nature of data set [5]: Apparent permeability of the compound across apical to basolateral side in dog MDCK1 cells at 10 uM by LC-MS/MS analysis. In kind it is ADME, cell-based, Canis lupus familiaris. As to conditions: MDCK.
Data set [6] is described as follows: Volume of distribution at steady state in Sprague-Dawley rat at 0.5 mg/kg, iv measured for 8 hrs by LC-MS/MS analysis. In kind it is ADME, organism-based. Conditions: in vivo, read-out: Vdss.
The nature of data set [7]: Half life in Sprague-Dawley rat at 0.5 mg/kg, iv measured for 8 hrs by LC-MS/MS analysis. Conditions: in vivo. In kind it is ADME, organism-based.
The nature of data set [8]: Volume of distribution at steady state in C57BL/6 mouse at 25 mg/kg, po or 1 mg/kg, iv measured for 24 hrs by LC-MS/MS analysis. In kind it is ADME, organism-based. Conditions: in vivo.
Data set [9] is described as follows: Half life in C57BL/6 mouse at 25 mg/kg, po or 1 mg/kg, iv measured for 24 hrs by LC-MS/MS analysis. The data set is classed as ADME, organism-based. As to conditions: in vivo.
A short description of data set [10]: Oral bioavailability in C57BL/6 mouse at 25 mg/kg measured for 24 hrs by LC-MS/MS analysis. The data set is classed as ADME, organism-based. As to conditions: in vivo.
Data set [11] is described as follows: Oral bioavailability in Sprague-Dawley rat. The data set is classed as ADME, organism-based. Conditions: in vivo.
Data set [12] can be described thus: Kinetic solubility of the compound in PBS at pH 7.4. In kind it is physicochemical. As to conditions: read-out: Kinetic_solubility.
Data set [13] concerns the target T1, Mitogen-activated protein kinase kinase kinase kinase 1. Nature of the data set: Inhibition of HPK1 in primary human Pan T cells assessed as increase in IL-2 secretion pretreated for 30 mins followed by incubation with anti-CD3/anti-CD28 and measured after 4 hrs by MSD assay relative to control. The data set is classed as cell-based. As to conditions: T cell, time 4.5 hrs.
Target sequence in this assay (Q92918 whole entry, looked up): as the sequence (Q92918 whole entry) above

With `Cc1ccncc1-c1cc2cc(Nc3cc4n(n3)CC(=O)N(C)CC4)ncc2c(N)c1F`, the Ki (usually a dissociation constant, usually derived from enzyme kinetics or from competition with a known ligand) in [1] was determined as 0.16 nM.

Take `Cc1c(-c2cc3cc(NC(=O)OC4CCOCC4)ncc3c(N)c2F)cnc2c1NCCO2`: in [2], the clearance (as a rule, the volume of plasma or blood freed of the substance per unit of time) stood at 17 mL/min/kg. The inhibition constant Ki in data set [1] is less than 0.019 nM. Besides, in data set [3], the 50% inhibitory concentration (IC50) (commonly the concentration at which inhibition is half-maximal) came to 97 nM. In data set [4], the EC50 (as a rule, the concentration at which the effect is half-maximal) is 39 nM. Also, the Papp A→B – broadly, the apparent permeability from the apical to the basolateral side of a cell layer – at 10 µM in [5] came out at 18 ×10⁻⁶ cm/s. The Vd in data set [6] was found to be 1.5 L/kg. The half-life (as a rule, the time in which the quantity being followed falls by half) is 1.5 h in [7] and 1.1 h in [9]. In data set [8], the Vdss came to 1.3 L/kg. The bioavailability – broadly, the share of a dose that reaches the circulation, judged against a reference dose that is usually intravenous – is 31% in [10] (C57BL/6, mouse) and 16% in data set [11]. Besides, the solubility kinetic in data set [12] amounted to 1.5 µM (≈ 0.68 µg/mL).

As to `Cc1ccncc1-c1cc(N)c2cnc(NC(=O)[C@@H]3C[C@H]3C#N)cc2c1`, in [1], the Ki worked out at 4.9 nM. In data set [13], the fold change (FC) worked out at 5.

Consider `Cc1c(N)cncc1-c1cc2cc(NC(=O)OC3CCOCC3)ncc2c(N)c1F`, for which, in data set [2], the clearance turned out to be 38 mL/min/kg. Besides, the Ki in [1] was found to be 0.498 nM. Also, the Papp A→B at 10 µM in data set [5] is 15 ×10⁻⁶ cm/s. Further, the Vd in data set [6] is 3.2 L/kg. Also, the half-life was 1.2 h in data set [7] and 1.3 h in data set [9]. This compound gave a Vdss in data set [8] of 1.7 L/kg. Moreover, the bioavailability in [11] turned out to be 94%. Further, the solubility kinetic in [12] was 13 µM (≈ 5.35 µg/mL).

`Cc1c(N)cncc1-c1cc2cc(Nc3cc4n(n3)CC(=O)N(C)CC4)ncc2c(N)c1F` displayed a clearance in [2] of 64 mL/min/kg. Moreover, the IC50 in [3] was determined as 110 nM. Further, the EC50 in data set [4] worked out at 11 nM. Moreover, in data set [5], the Papp A→B at 10 µM is 0.4 ×10⁻⁶ cm/s. In data set [6], the Vd is 2.2 L/kg. Also, the half-life in [7] was 0.57 h; in data set [9] it was 0.26 h. The compound further came in with a Vdss in [8] of 1.3 L/kg. The F entry in [10] (mouse, po, 25 mg/kg, 24 h, BLD = below limit of detection) is recorded as “Bld”.

As to `Cc1ccncc1-c1cc2cc(Nc3cnn([C@@H](C)C#N)c3)ncc2c(N)c1F`, in [1], the Ki is 32 nM.

(Values after ChEMBL document CHEMBL6127064, “Discovery of GNE-6893, a Potent, Selective, Orally Bioavailable Small Molecule Inhibitor of HPK1” (ACS Med Chem Lett, 2024).)
